This assay deals with T1, human URAT1 (Homo sapiens, UniProt Q96S37).
T1 construct: Full-length cDNA of human URAT1 (hURAT1)
T1 sequence (Q96S37 1-553): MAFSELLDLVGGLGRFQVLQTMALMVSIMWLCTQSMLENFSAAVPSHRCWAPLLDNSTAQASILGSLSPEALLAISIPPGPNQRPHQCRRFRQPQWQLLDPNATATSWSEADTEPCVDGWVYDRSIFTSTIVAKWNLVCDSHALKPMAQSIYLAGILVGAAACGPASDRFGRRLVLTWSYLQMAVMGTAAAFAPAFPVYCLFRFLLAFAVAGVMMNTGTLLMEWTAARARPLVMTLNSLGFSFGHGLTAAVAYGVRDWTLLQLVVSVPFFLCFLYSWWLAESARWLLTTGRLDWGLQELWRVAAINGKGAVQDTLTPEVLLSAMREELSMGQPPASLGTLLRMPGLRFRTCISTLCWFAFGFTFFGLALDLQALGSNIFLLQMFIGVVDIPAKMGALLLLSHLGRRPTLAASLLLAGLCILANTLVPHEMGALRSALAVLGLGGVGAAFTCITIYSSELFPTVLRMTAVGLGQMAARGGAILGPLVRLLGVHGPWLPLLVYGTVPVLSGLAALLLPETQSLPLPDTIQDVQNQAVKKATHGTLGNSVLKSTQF
In words: Test for inhibition of uric acid transport using human URAT1-expressing cells.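 For all read-outs here: three stars up to 0.2 µM two stars 0.2-2 µM one star 2-20 µM.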 It counts as cell-based. The conditions noted are these: HEK 293 cells expressing human URAT1, 14C-labeled uric acid 25 μM, uptake 37° C. for 5 min; for IC50: read-out: Inhibitory Activity (IC50 of uric acid transport inhibition). In outline: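 HEK293 cells stably transfected with full-length hURAT1, preincubated 10 min at 37 °C in HBSS with NaCl replaced by Na gluconate. Uptake of 25 μM ¹⁴C-uric acid with compound ran 5 min at 37 °C, then scintillation counting. IC50 derived from % of DMSO-control URAT1-specific uptake.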

Molecules are shown by their SMILES.

Here are results for 29 compounds from patent US9637469B2, “Pyridine derivative” (Teijin Pharma Limited, priority 2012, dated 2017).

On to `CCC(O)(CC)c1nc(-c2cncc(C)c2)n(Cc2cc(Cl)ccc2Cl)c1C(=O)O` [Compound A217, 1-(2,5-dichlorobenzyl)-4-(3-hydroxypentan-3-yl)-2-(5-methylpyridin-3-yl)-1H-imidazole-5-carboxylic acid], for which the “Inhibitory Activity (IC50 of uric acid transport inhibition)” value (shortened to “Inhibitory Activity”) is recorded as “* * *”.
For `O=C(O)c1c(OCCO)nc(-c2cccnc2)n1Cc1cc(Cl)ccc1Cl` [Compound A97], the IC50 (commonly the concentration that gives 50% inhibition) lay within 2 to 20 µM.
For `O=C(O)c1c(C(F)(F)F)nc(-c2cncc(F)c2)n1Cc1cc(Cl)ccc1Cl` [Compound A136, 1-(2,5-dichlorobenzyl)-2-(5-fluoropyridin-3-yl)-4-(trifluoromethyl)-1H-imidazole-5-carboxylic acid], the “Inhibitory Activity” value was “* * *”.
Consider `CCSc1nc(-c2cccnc2)n(Cc2cc(Cl)ccc2Cl)c1C(=O)O` [Compound A105, 1-(2,5-dichlorobenzyl)-4-(ethylthio)-2-(pyridin-3-yl)-1H-imidazole-5-carboxylic acid], for which the “Inhibitory Activity” value is given as “* * *”.
On to `Cc1nc(-c2cncc(F)c2)n(Cc2cc(C(F)(F)F)ccc2C(F)(F)F)c1C(=O)O` [Compound A170, 1-(2,5-bis(trifluoromethyl)benzyl)-2-(5-fluoropyridin-3-yl)-4-methyl-1H-imidazole-5-carboxylic acid], for which the “Inhibitory Activity” value is reported as “* *”.
Regarding `Cc1cncc(-c2nc(Cl)c(C(=O)O)n2Cc2cc(Cl)ccc2Cl)c1` [Compound A219, 4-chloro-1-(2,5-dichlorobenzyl)-2-(5-methylpyridin-3-yl)-1H-imidazole-5-carboxylic acid], the “Inhibitory Activity” value is “* * *”.
Take `Cc1ccc2ccccc2c1Cn1c(-c2ccccn2)nc(C)c1C(=O)O` [Compound A241]: the IC50 is 2 to 20 µM.
Take `Cc1nc(-c2ccncc2)n(Cc2cccc3ccccc23)c1C(=O)O` [Compound A239]: the IC50 lay within 2 to 20 µM.
For `Cc1cccc2scc(Cn3c(C(=O)O)ccc3-c3cccnc3)c12` [Compound B7, 1-((4-methylbenzo[b]thiophen-3-yl)methyl)-2-(pyridin-3-yl)-1H-pyrrole-5-carboxylic acid], the “Inhibitory Activity” value is given as “* * *”.
For `Cc1nc(-c2cncc([S+](C)(=O)[O-])c2)n(Cc2cc(Cl)ccc2Cl)c1C(=O)O` [Compound A165], the IC50 was in the range of 2 to 20 µM.
With `Cc1nc(-c2cncc(C(F)(F)F)c2)n(Cc2csc3cccc(Cl)c23)c1C(=O)O` [Compound A143, 1-((4-chlorobenzo[b]thiophen-3-yl)methyl)-4-methyl-2-(5-(trifluoromethyl)pyridin-3-yl)-1H-imidazole-5-carboxylic acid], the “Inhibitory Activity” value is recorded as “* * *”.
On to `Cc1nc(-c2ccccn2)n(Cc2cccc3ccccc23)c1C(=O)O` [Compound A243], for which the IC50 lay within 2 to 20 µM.
For the compound `O=C(O)c1c(-c2ccccc2)nc(-c2cccnc2)n1Cc1cc(Cl)ccc1Cl` [Compound A91, 1-(2,5-dichlorobenzyl)-4-phenyl-2-(pyridin-3-yl)-1H-imidazole-5-carboxylic acid], the “Inhibitory Activity” value is “* * *”.
In the case of `C=Cc1nc(-c2cccnc2)n(Cc2cc(Cl)ccc2Cl)c1C(=O)O` [Compound A102, 1-(2,5-dichlorobenzyl)-2-(pyridin-3-yl)-4-vinyl-1H-imidazole-5-carboxylic acid], the “Inhibitory Activity” value is “* *”.
The same measure, in the same setting: the result for `Cc1ccc(C)c(Cn2c(-c3ccncc3)nc(C)c2C(=O)O)c1` [Compound A238, 1-(2,5-dimethylbenzyl)-4-methyl-2-(pyridin-4-yl)-1H-imidazole-5-carboxylic acid] reads “* *”; that for `CC(=O)c1nc(-c2cncc(Cl)c2)n(Cc2cc(Cl)ccc2Cl)c1C(=O)O` [Compound A218, 4-acetyl-2-(5-chloropyridin-3-yl)-1-(2,5-dichlorobenzyl)-1H-imidazole-5-carboxylic acid], “* * *”.
Take `O=C(O)c1c(C(F)(F)F)nc(-c2cccnc2)n1Cc1csc2cccc(C(F)(F)F)c12` [Compound A32]: the IC50 was in the range of 2 to 20 µM.
On to `CS(=O)(=O)NC(=O)c1ccc(-c2cccnc2)n1Cc1cc(Cl)ccc1Cl` [Compound B28, 1-(2,5-dichlorobenzyl)-N-(methylsulfonyl)-2-(pyridin-3-yl)-1H-pyrrole-5-carboxamide], for which the “Inhibitory Activity” value is “* * *”.
Still for that read-out and setting: the entry for `CCOC(=O)c1c(C)nc(-c2cccnc2)n1Cc1cccc2ccccc12` [Compound A3, ethyl 4-methyl-1-(naphthalen-1-ylmethyl)-2-(pyridin-3-yl)-1H-imidazole-5-carboxylate] is “* *”; for `O=C(O)c1cnc(-c2cncc(Br)c2)n1Cc1cc(Cl)ccc1Cl` [Compound A205, 2-(5-bromopyridin-3-yl)-1-(2,5-dichlorobenzyl)-1H-imidazole-5-carboxylic acid] it is “* * *”.
The same measure, in the same setting: the result for `O=C(O)c1c(C2CC2)nc(-c2cccnc2)n1Cc1csc2cccc(Cl)c12` [Compound A33, 1-((4-chlorobenzo[b]thiophen-3-yl)methyl)-4-cyclopropyl-2-(pyridin-3-yl)-1H-imidazole-5-carboxylic acid] reads “* *”; that for `COc1ccc(-c2nc(C)c(C(=O)O)n2Cc2cc(Cl)ccc2Cl)cn1` [Compound A161, 1-(2,5-dichlorobenzyl)-2-(6-methoxypyridin-3-yl)-4-methyl-1H-imidazole-5-carboxylic acid], “* *”; that for `CCN(CC)Cc1nc(-c2cncc(Cl)c2)n(Cc2cc(Cl)ccc2Cl)c1C(=O)O` [Compound A193, 2-(5-chloropyridin-3-yl)-1-(2,5-dichlorobenzyl)-4-((diethylamino)methyl)-1H-imidazole-5-carboxylic acid], “* * *”.
On to `O=C(O)c1ccc(-c2cncc(F)c2)n1Cc1csc2cccc(Cl)c12` [Compound B16, 1-((4-chlorobenzo[b]thiophen-3-yl)methyl)-2-(5-fluoropyridin-3-yl)-1H-pyrrole-5-carboxylic acid], for which the “Inhibitory Activity” value was “* * *”.
Turning to `Cc1nc(-c2cccnc2)n(Cc2cccc3ccsc23)c1C(=O)NS(=O)(=O)C1CC1` [Compound A116], the 50% inhibitory concentration (IC50) lay within 2 to 20 µM.
With `Cc1cncc(-c2ccc(C(=O)NS(=O)(=O)C3CC3)n2Cc2cc(Cl)ccc2Cl)c1` [Compound B32, N-(cyclopropylsulfonyl)-1-(2,5-dichlorobenzyl)-2-(5-methylpyridin-3-yl)-1H-pyrrole-5-carboxamide], the “Inhibitory Activity” value is on record as “* * *”.
For the compound `CC(C)(O)c1nc(-c2cncc(Cl)c2)n(Cc2cc(Cl)ccc2Cl)c1C(=O)O` [Compound A213, 2-(5-chloropyridin-3-yl)-1-(2,5-dichlorobenzyl)-4-(2-hydroxypropan-2-yl)-1H-imidazole-5-carboxylic acid], the “Inhibitory Activity” value is on record as “* * *”.
The same measure, in the same setting: the result for `O=C(O)c1c(CO)nc(-c2cncc(Cl)c2)n1Cc1cc(Cl)ccc1Cl` [Compound A191, 2-(5-chloropyridin-3-yl)-1-(2,5-dichlorobenzyl)-4-(hydroxymethyl)-1H-imidazole-5-carboxylic acid] reads “* * *”.
Regarding `CC[S+]([O-])c1nc(-c2cccnc2)n(Cc2cc(Cl)ccc2Cl)c1C(=O)O` (centres unmarked) [Compound A107], the IC50 fell in the range of 2 to 20 µM.
